{"source": "patent US10660910B2", "about": "“Use of sedoheptulose for prevention or treatment of inflammation” (C7 SUGAR GMBH, priority 2013, dated 2020)", "key": {"[1]": {"tested_on": "Glucose-6-phosphate dehydrogenase (G6PD) in hepatocytes", "experiment": "Glucose-6-phosphate dehydrogenase activity assay (enzyme histochemistry) in hepatocytes", "assay_type": "cell-based, mouse", "conditions": "WT cells incubated in cell culture media with sedoheptulose; compared with phenotype of CARKL overexpressing cells; data not shown", "experimental": "Hepatocytes were isolated from male wild-type and CARKL overexpressing mice after the mice were sacrificed by hepatic in situ collagenase perfusion. After perfusion, the liver was quickly removed, minced, and filtered through a cell strainer (Fisher Scientific, Inc) into a 50 ml sterile tube. Hepatocytes in the resulting filtrate were purified from the nonparenchymal cells by centrifugation steps. The isolated hepatocytes were seeded into plates at a concentration of 0.25×10^6/ml in respective DMEM-media containing 10% FBS and indicated carbohydrate mixes at 3 g/L (glucose and fructose (GF), or glucose, fructose and sedoheptulose (GFS)) at least two days before experiments were performed. Cells were grown on polystyrene vessel tissue culture treated glass slides, snap frozen in liquid nitrogen and kept at −80° C. The enzyme histochemical procedure was based on the tetrazolium salt method as described by Van Noorden and Frederiks. […] The medium was freshly prepared immediately before incubation. Control reactions additionally contained 40 mM glucosamine-6-phosphate. Cells were incubated at room temperature for 15 minutes under continuous mixing by orbital shaker. After incubation, cells were washed 3×5 minutes in […] phosphate buffered saline, dried, and mounted in glycerol gelatin, and photographed within one day at ×10 magnification."}, "[2]": {"tested_on": "primary murine hepatocytes", "experiment": "Primary murine hepatocyte culture, IL-6 mRNA by RT-PCR", "assay_type": "cell-based, mouse", "conditions": "pre-cultured two days in GFS vs GF media, FIG. 3H", "experimental": "Hepatocytes were isolated from male wild-type and CARKL overexpressing mice after the mice were sacrificed by hepatic in situ collagenase perfusion. After perfusion, the liver was quickly removed, minced, and filtered through a cell strainer (Fisher Scientific, Inc) into a 50 ml sterile tube. Hepatocytes in the resulting filtrate were purified from the nonparenchymal cells by centrifugation steps. The isolated hepatocytes were seeded into plates at a concentration of 0.25×10^6/ml in respective DMEM-media containing 10% FBS and indicated carbohydrate mixes at 3 g/L (glucose and fructose (GF), or glucose, fructose and sedoheptulose (GFS)) at least two days before experiments were performed.\n(§1) Briefly, total RNA was extracted and reverse-transcribed using commercial kits (QIAGEN, Applied Biosystems). Quantitative real-time PCRs were performed on an AbiPRISM 7900HT real-time cycler using iTaq SYBR Green Supermix with ROX (BioRad) to measure CARKL, adiponectin, UCP-1, TNFa, IL-6, MCP-1, and beta-actin expression as previously described (Haschemi et al., Cell Metab. 15 (2012), 813-826). Expression of target gene was normalized to beta-actin expression. Relative expression of target gene was calculated by the delta-delta CT method."}, "[3]": {"tested_on": "primary bone marrow derived macrophages", "experiment": "Bone marrow derived macrophages, basal cytokine mRNA (RT-PCR) and secretion (ELISA)", "assay_type": "cell-based, mouse", "experimental": "FIG. 3: (A-E) Primary human adipocytes were obtained by differentiation of the stromal vascular cell fraction in the presence of glucose and fructose (GF, 1.5 g/L of each sugar; total carbohydrates 3 g/L) or sedoheptulose supplemented media, which was termed GFS (1 g/L of each sugar; total carbohydrates 3 g/L), for eight days. Subsequently mRNA levels of (A) CARKL, (B) adiponectin and (C) uncoupling protein 1 (UCP-1) was assessed by RT-PCR and compared between the groups. (D) Cellular oxygen consumption rates (OCR) and (E) extracellular acidification rates (ECAR) of adipocytes were recorded in the presence of indicated carbohydrate-mix (mean+/−S.D., n=9-11). (F) Tumor necrosis factor alpha (TNFa) and (G) interleukin 6 (IL-6) mRNA expression levels of mature murine adipocytes cultivated for three days in cell culture media containing either GF or GFS carbohydrate mix, or (H) IL-6 expression in primary murine hepatocytes, as well as (I) TNFa and (J) IL-6 mRNA levels in primary bone marrow derived macrophages, both cell types were pre-cultured for two days in GF or GFS media, were compared between respective groups. Secretion of (K) TNFa and (L) IL-6 cytokines over the period of two days was measured by ELISA in the supernatant of bone marrow derived macrophages. LPS-induced (100 ng/ml) secretion of (M) TNFa 2 hrs after activation and (N) IL-6 6 hrs after activation in the respective media by macrophages was also measured by ELISA. Data represents mean+/−S.D., n=3)\nMouse bones were isolated from male wild-type and CARKL overexpressing mice and bone marrow wash flushed, washed and cleared from redblood cells by lysis, and subsequently differentiated in DMEM containing 25 mM glucose and 20 ng/ml M-CSF. After 4 days, cells for osteoclast differentiation were harvested and seeded in corning osteo assay plates with differentiation media (see below), and for primary bone marrow derived macrophages (BMDM) the medium was renewed and further supplemented with M-SCF for two days. Differentiated BMDM were then seeded in respective DMEM-media containing 10% FBS and indicated carbohydrate mixes at 3 g/L (glucose and fructose (GF), or glucose, fructose and sedoheptulose (GFS)) at least two days before experiments were performed.\nas §1"}, "[4]": {"experiment": "Glucose and sedoheptulose measurement in human serum before and after carrot meal (GC-MS)", "assay_type": "in vivo", "conditions": "humans, two hours after a meal of mainly steamed carrots (~700 g per male adult) vs overnight fasted, n=4, FIG. 1B", "description": "Fresh carrots with an Austrian “organic-certificate” were sliced into small pieces and snap-frozen in liquid nitrogen. The same procedure was applied to leaves freshly harvested from indoor-grown Sedum Spectabile plants. Three samples of each tissue were pooled and homogenized to powder by glass-beads. The carbohydrate rich fractions of the samples were isolated by 20% H2O and 80% MeOH extraction solution spiked with 13 C standards and processed for standard gas-chromatography coupled to mass spectrometry (GC-MS). Glucose and sedoheptulose were identified by their individual masses and their relative amount was derived from the peak area of each individual analyte normalized to 13 C content. Glucose and sedoheptulose were also measured in equal volumes of serum from overnight fasted or carrot fed individuals. The carrots were steamed and some olive-oil, salt and pepper were used for flavour. Two hours before and two hours after the carrot containing meal human serum was prepared in VACUETTE® Z Serum Sep tubes from blood. Serum samples were processed as previously described and also analyzed by GC-MS as detailed above and in Ruiz-Matute AI et al., Chromatogr B Analyt Technol Biomed Life Sci. (2011) May 15 879(17-18)."}}, "data": [{"smiles": "O=C(CO)[C@@H](O)[C@H](O)[C@H](O)[C@H](O)CO", "note": "[sedoheptulose, Sedoheptulose]", "values": [{"measurement": "G6PD activity distribution (re-localization of G6PD, reduced activity in the inner space of the cells)", "setting": "[1]", "value": "same phenotype"}, {"measurement": "IL-6 expression", "setting": "[2]", "value": "less"}, {"measurement": "basal TNFa mRNA expression", "setting": "[3]; pre-cultured two days in GFS vs GF media, FIG. 3I", "value": "blocked"}, {"measurement": "basal IL-6 mRNA expression", "setting": "[3]; pre-cultured two days in GFS vs GF media, FIG. 3J", "value": "blocked"}, {"measurement": "basal TNFa cytokine secretion", "setting": "[3]; supernatant over two days, ELISA, GFS vs GF media, FIG. 3K", "value": "blocked"}, {"measurement": "basal IL-6 cytokine secretion", "setting": "[3]; supernatant over two days, ELISA, GFS vs GF media, FIG. 3L", "value": "blocked"}, {"measurement": "increase in sedoheptulose serum levels", "setting": "[4]", "value": "approximately two-fold"}]}]}
